In article PMC11350758, “Development of Xanthoangelol-Derived Compounds with Membrane-Disrupting Effects against Gram-Positive Bacteria” (Antibiotics, 2024):
In brackets after ≈: the same amount, converted by molar mass.

Legend:
[1] = test system: Staphylococcus aureus ATCC43300, methicillin-resistant strain; assay: microbe, parasite or virus in culture; assay type: cell-based; details: ATCC 43300 / MRSA; Staphylococcus aureus ATCC43300 (MRSA); read-out: MIC S. a 43300
Experimental: (§1) All target derivatives were assessed for their in vitro antibacterial activities using a broth microdilution assay to test their minimum inhibitory concentrations (MICs) against six Gram-positive strains (S. aureus ATCC31007, S. aureus ATCC25923, S. aureus ATCC43300, E. faecalis ATCC29212, B. subtilis ATCC9372, and S. epidermidis ATCC12228) and four Gram-negative strains (A. baumannii ATCC19606, K. pneumonia ATCC10031, E. coli ATCC25922, and P. aeruginosa ATCC27853). These compounds were also evaluated for their hemolytic activities and membrane selectivity by determining their HC50 (the concentration required to lyse 50% of red blood cells) and SI (HC50/MICs) values, respectively, and vancomycin was used as the positive drug.
(§2) MICs of the derivatives were determined by the micro broth dilution method according to the American Clinical and Laboratory Standards Institute (CLSI) standards. Briefly, 2-fold serial dilutions of target compounds were prepared in 96-well plates containing TSB broth. An equal volume of bacterial suspension (10^6 CFU/mL) was then pipetted into each well, and the mixture was incubated at 37 °C for 24 h. […] All biological experiments were repeated three times.

[2] = test system: Staphylococcus epidermidis ATCC12228, erythromycin-susceptible strain; assay: MIC, broth microdilution; assay type: cell-based; details: Staphylococcus epidermidis ATCC12228; read-out: MIC S. e. 12228
Experimental: as §1, §2

[3] = test system: Pseudomonas aeruginosa ATCC27853, penicillin-susceptible strain; assay: MIC, broth microdilution; assay type: cell-based; details: Pseudomonas aeruginosa ATCC27853; read-out: MIC P. a. 27853
Experimental: as §1, §2

[4] = test system: Staphylococcus aureus ATCC31007, penicillin-resistant strain; assay: MIC, broth microdilution; assay type: cell-based; details: Staphylococcus aureus ATCC31007; read-out: MIC S. a. 31007
Experimental: as §1, §2

[5] = test system: Escherichia coli ATCC25922, penicillin-susceptible strain; assay: MIC, broth microdilution; assay type: cell-based; details: Escherichia coli ATCC25922; read-out: MIC E. c. 25922
Experimental: as §1, §2

[6] = test system: Bacillus subtilis ATCC9372, penicillin-susceptible strain; assay: MIC, broth microdilution; assay type: cell-based; details: Bacillus subtilis ATCC9372; read-out: MIC B. s. 9372
Experimental: as §1, §2

[7] = test system: Klebsiella pneumonia ATCC10031; assay: MIC, broth microdilution; assay type: cell-based; details: Klebsiella pneumoniae; Klebsiella pneumonia ATCC10031; read-out: MIC K. p. 10031
Experimental: as §1, §2

[8] = test system: Staphylococcus aureus ATCC25923, erythromycin-susceptible strain; assay: MIC, broth microdilution; assay type: cell-based; details: Staphylococcus aureus ATCC25923; read-out: MIC S. a. 25923
Experimental: as §1, §2

[9] = test system: Enterococcus faecalis ATCC29212, vancomycin-susceptible strain; assay: MIC, broth microdilution; assay type: cell-based; details: Enterococcus faecalis ATCC29212; read-out: MIC E. f. 29212
Experimental: as §1, §2

[10] = test system: Acinetobacter baumannii ATCC19606; assay: MIC, broth microdilution; assay type: cell-based; details: Acinetobacter baumannii ATCC19606; read-out: MIC A. b. 19606
Experimental: as §1, §2

[11] = test system: Enterococcus faecium ATCC51559, vancomycin-resistant strain; assay: MIC, broth microdilution; assay type: cell-based; details: Enterococcus faecium ATCC51559, vancomycin-resistant; read-out: MIC E. f. 51559
Experimental: as §2

[12] = test system: Enterococcus faecalis ATCC51299, vancomycin-resistant strain; assay: MIC, broth microdilution; assay type: cell-based; details: Enterococcus faecalis ATCC51299, vancomycin-resistant; read-out: MIC E. f. 51299
Experimental: as §2

red blood cells = assay: Hemolysis assay; assay type: cell-based, Sheep; details: concentration required to lyse 50% of red blood cells; 37 °C, 1 h
Experimental: as §1
To further detect the hemolytic toxicity and therapeutic potential of these derivatives, we proceeded to examine the hemolytic activities and membrane selectivity of these derivatives. The HC50 value was defined as the concentration needed for a compound to lyse 50% of red blood cells, and it is often used to evaluate the hemolytic toxicity to eukaryotic cells. […] The selectivity index (SI) was calculated by HC50/MICs of S. aureus ATCC43300 and was used to assess the potency and safety of the compounds. […] Thus, compound 9h was selected as a representative molecule for the in-depth in vitro and in vivo studies.
Sheep blood was used to isolate red blood cells (RBCs), which were then resuspended in 1× PBS (5%). The compounds were dissolved in PBS to give an initial concentration of 5.12 mg/mL, compound solution (100 μL) was added to the first well of a 96-well plate, two-fold serial dilutions of compounds were prepared in 96-well plates, and then 150 μL of 5% RBC suspension was added to each well. This was followed by incubation at 37 °C for 1 h. After incubation, the plate was centrifuged (3500 rpm, 5 min), and 100 μL of supernatant solution from each well was carefully pipetted into a new plate. The absorbance values were measured at 540 nm. Erythrocyte hemolysis rate = (Absorbancecompound – Absorbance negative control)/(Absorbance1% Triton X-100 − Absorbance negative control) × 100%. All biological experiments were repeated three times.

S. aureus = assay: MIC, summary over the S. aureus strains tested; assay type: cell-based; details: Staphylococcus aureus; over the three S. aureus strains tested; read-out: MICs against S. aureus
Experimental: as §1, §2

[13] = test system: Gram-positive strains tested; assay: MIC, summary over the Gram-positive strains tested; assay type: cell-based; details: read-out: MICs against the Gram-positive strains tested, range over the Gram-positive panel
Experimental: as §1, §2

Compound | MIC [1] | MIC [2] | MIC [3] | MIC [4] | MIC [5] | MIC [6] | MIC [7] | MIC [8] | MIC [9] | MIC [10] | MIC [11] | MIC [12] | HC50 (red blood cells) | MIC (S. aureus) | MIC [13]
CC[N+](CC)(CC)CCCOc1c(C(C)=O)ccc2c1C=CC(C)(CCC=C(C)C)O2 (stereo not shown) [Compound 5a, 3-((6-Acetyl-2-methyl-2-(4-methylpent-3-en-1-yl)-2H-chromen-5-yl)oxy)-N,N,N-triethylpropan-1-aminium] | 64 µg/mL | 64 µg/mL | > 128 µg/mL | 128 µg/mL | > 128 µg/mL | 64 µg/mL | 128 µg/mL | 8 µg/mL | 64 µg/mL | > 128 µg/mL | 16 µg/mL | 16 µg/mL | 571.5 µg/mL | 8 to 128 µg/mL | 
CCN(CC)CCCOc1c(C(C)=O)ccc2c1C=CC(C)(CCC=C(C)C)O2 (stereo not shown) [Compound 5c, 1-(5-(3-(Diethylamino)propoxy)-2-methyl-2-(4-methylpent-3-en-1-yl)-2H-chromen-6-yl)ethan-1-one] | 32 µg/mL (≈ 80.1 µM) | 16 µg/mL (≈ 40 µM) | 32 µg/mL (≈ 80.1 µM) | 32 µg/mL (≈ 80.1 µM) | 128 µg/mL (≈ 320 µM) | 16 µg/mL (≈ 40 µM) | 16 µg/mL (≈ 40 µM) | 32 µg/mL (≈ 80.1 µM) | 32 µg/mL (≈ 80.1 µM) | 32 µg/mL (≈ 80.1 µM) | 64 µg/mL (≈ 160 µM) | 128 µg/mL (≈ 320 µM) | 324.1 µg/mL | 8 to 128 µg/mL (≈ 20 to 320 µM) | 
CC(=O)c1ccc2c(c1OCCCN(C)CC(C)(C)CN(C)C)C=CC(C)(CCC=C(C)C)O2 (stereo not shown) [Compound 5g, 1-(5-(3-((3-(Dimethylamino)-2,2-dimethylpropyl)(methyl)amino)propoxy)-2-methyl-2-(4-methylpent-3-en-1-yl)-2H-chromen-6-yl)ethan-1-one] | 8 µg/mL (≈ 17 µM) | 4 µg/mL (≈ 8.5 µM) | 128 µg/mL (≈ 272 µM) | 8 µg/mL (≈ 17 µM) | 16 µg/mL (≈ 34 µM) | 8 µg/mL (≈ 17 µM) | 4 µg/mL (≈ 8.5 µM) | 8 µg/mL (≈ 17 µM) | 8 µg/mL (≈ 17 µM) | 8 µg/mL (≈ 17 µM) | 16 µg/mL (≈ 34 µM) | 32 µg/mL (≈ 68 µM) | 183.1 µg/mL | 8 µg/mL (≈ 17 µM) | 
CC(=O)c1ccc2c(c1OCCCNCCCN1CCCC1)C=CC(C)(CCC=C(C)C)O2 (stereo not shown) [Compound 5h] | 8 µg/mL (≈ 17.6 µM) | 4 µg/mL (≈ 8.8 µM) | 16 µg/mL (≈ 35.2 µM) | 8 µg/mL (≈ 17.6 µM) | 8 µg/mL (≈ 17.6 µM) | 8 µg/mL (≈ 17.6 µM) | 8 µg/mL (≈ 17.6 µM) | 8 µg/mL (≈ 17.6 µM) | 8 µg/mL (≈ 17.6 µM) | 4 µg/mL (≈ 8.8 µM) | 32 µg/mL (≈ 70.4 µM) | 32 µg/mL (≈ 70.4 µM) | 84.7 µg/mL | 8 µg/mL (≈ 17.6 µM) | 
CC[N+](CC)(CC)CCCOc1c2c(c3c(c1C(C)=O)OC(C)(CCC=C(C)C)C=C3)OC(C)(CCC=C(C)C)C=C2 (stereo not shown) [Compound 9a, 3-((6-Acetyl-2,8-dimethyl-2,8-bis(4-methylpent-3-en-1-yl)-2H,8H-pyrano[2,3-f]chromen-5-yl)oxy)-N,N,N-triethylpropan-1-aminium] | 4 µg/mL | 2 µg/mL | > 128 µg/mL | 4 µg/mL | > 128 µg/mL | 1 µg/mL | > 128 µg/mL | 2 µg/mL | 4 µg/mL | 128 µg/mL | 4 µg/mL | 4 µg/mL | 40.4 µg/mL | 2 to 4 µg/mL | 
CCN(CC)CCCOc1c2c(c3c(c1C(C)=O)OC(C)(CCC=C(C)C)C=C3)OC(C)(CCC=C(C)C)C=C2 (stereo not shown) [Compound 9c, 1-(5-(3-(Diethylamino)propoxy)-2,8-dimethyl-2,8-bis(4-methylpent-3-en-1-yl)-2H,8H-pyrano[2,3-f]chromen-6-yl)ethan-1-one] | 4 µg/mL (≈ 7.28 µM) | 1 µg/mL (≈ 1.82 µM) | > 128 µg/mL | 2 µg/mL (≈ 3.64 µM) | > 128 µg/mL | 2 µg/mL (≈ 3.64 µM) | > 128 µg/mL | 2 µg/mL (≈ 3.64 µM) | 1 µg/mL (≈ 1.82 µM) | > 128 µg/mL | 4 µg/mL (≈ 7.28 µM) | 8 µg/mL (≈ 14.6 µM) | 187.6 µg/mL | 2 to 4 µg/mL (≈ 3.64 to 7.28 µM) | 
CC(=O)c1c(OCCCN2CC(C)OC(C)C2)c2c(c3c1OC(C)(CCC=C(C)C)C=C3)OC(C)(CCC=C(C)C)C=C2 (stereo not shown) [Compound 9d, 1-(5-(3-(2,6-Dimethylmorpholino)propoxy)-2,8-dimethyl-2,8-bis(4-methylpent-3-en-1-yl)-2H,8H-pyrano[2,3-f]chromen-6-yl)ethan-1-one] | > 128 µg/mL | > 128 µg/mL | > 128 µg/mL | > 128 µg/mL | > 128 µg/mL | > 128 µg/mL | > 128 µg/mL | > 128 µg/mL | > 128 µg/mL | > 128 µg/mL | > 128 µg/mL | > 128 µg/mL | >1280 µg/mL |  | > 64 µg/mL
CC(=O)c1c(OCCCSC(=N)N)c2c(c3c1OC(C)(CCC=C(C)C)C=C3)OC(C)(CCC=C(C)C)C=C2 (stereo not shown) [Compound 9e, 2-(3-((6-Acetyl-2,8-dimethyl-2,8-bis(4-methylpent-3-en-1-yl)-2H,8H-pyrano[2,3-f]chromen-5-yl)oxy)propyl)isothiouronium] | 64 µg/mL (≈ 116 µM) | 128 µg/mL (≈ 232 µM) | > 128 µg/mL | 128 µg/mL (≈ 232 µM) | > 128 µg/mL | 64 µg/mL (≈ 116 µM) | > 128 µg/mL | 8 µg/mL (≈ 14.5 µM) | 64 µg/mL (≈ 116 µM) | > 128 µg/mL | > 128 µg/mL | > 128 µg/mL | >1280 µg/mL |  | > 64 µg/mL
